The test system of one series is mAb 3B9. The series can be described thus: Inhibition of 3B9-catalyzed cocaine hydrolysis. The settings on record: 1 mM. Type of series: biochemical, BALB/c mice.
For another series, the system named is mAb 6A12. The experiment in a line: Inhibition of 6A12-catalyzed cocaine hydrolysis. The settings on record: 1 mM.
For series [1] the following is noted: equine BChE, ph7.4, published sources; cited from earlier work.
For series [2] the following is noted: in vivo; cited from earlier work.
The nature of series [3]: Spontaneous hydrolysis of the methyl ester of cocaine to benzoyl ecgonine (HPLC). To be noted: buffer, pH 7.

Take `CNC(=O)Oc1ccc2c(c1)[C@]1(C)CCN(C)[C@@H]1N2C` [eserine]: the “effect of serum esterase inhibitor on enzyme” value in the series with mAb 3B9 and with mAb 6A12 was “unaffected” in each case.

As for “BChE: equine butyrylcholinesterase, the principal cocaine esterase in serum”, in series [1], the Kcat was 0.02 s⁻¹ and the Km (usually the substrate concentration at which the rate is half of its maximum) is 38 µM.

In the case of `COC(=O)[C@H]1[C@@H](OC(=O)c2ccccc2)C[C@@H]2CC[C@H]1N2C` [cocaine], the “dose excreted unchanged in the urine” value in series [2] is reported as under 10%. In addition, the half-life (commonly the time needed for the level to fall by half in the phase considered) in series [3] was 20 h.

The record behind these values is US6566084B1, “Catalytic antibodies against cocaine and methods of using and producing same” (priority 1992, dated 2003).
